Test results as given in a melting point compilation (Tetko et al.; mined from patent text by program, amines drawn as free bases though some values may be those of a salt).

melting point [°C]	SMILES
136 to 139	COc1ccc(S(=O)(=O)N2CC3CCC(C3)C2)c2ccccc12
> 260	O=C1c2ccccc2C(=O)c2sc(-c3ccncc3)nc21
205 to 206	Cc1ccccc1NC(=O)Nc1ccc(CC(=O)O)cc1
175 to 177	CC(C)(C)c1ccc2oc(C(O)COc3ccc(C(=O)O)cc3)cc2c1 (stereo not drawn)
207 to 210	O=C(Nc1ccc(NCCCO)nc1)c1cc2cc(C(F)(F)F)cnc2n1Cc1cccc(F)c1
208 to 210	COC(=O)c1ccccc1-n1c(CCl)nc2c(OC)cccc2c1=O
95 to 100	Cc1ccc(CC(=O)c2sccc2S(=O)(=O)Nc2onc(C)c2C)cc1
278 to 282	O=C(O)c1cn(Cc2cnsn2)c2cc(F)c(F)cc2c1=O
275 to 277	Cc1ccc(-c2cn3c(n2)sc2cc(O)ccc23)cc1
140 to 143	O=C(NCc1ccccc1)c1ccnc(NC(=O)c2cccc(F)c2)c1
197 to 198	O=C(NCc1ccccc1)c1cccc(-c2nc(=O)c3ccccc3s2)n1
219 to 220	CCN1c2ncc(Cc3cccc(O)c3)cc2C(=O)N(C)c2ccc(Cl)nc21
212 to 214	NC(=O)CN1C(=O)C(=Cc2ccc(OCCc3ccccc3)c(OCc3ccccc3)c2)SC1=S
184 to 197	CNc1nc(-c2cccnc2)nc(SC)c1C(=O)Nc1ccc(OC)cc1
93 to 95	Oc1c(C/C=C/c2ccc(OCc3ccccc3)c(OCc3ccccc3)c2)c(OCc2ccccc2)cc(OCc2ccccc2)c1Cc1ccccc1
257	CC(=O)Nc1nc2c(s1)-c1nc(-c3ccccc3Cl)ncc1C2
277	CNc1nc(-c2ccccc2)c(-c2nc(N)nc(Nc3cccc([N+](=O)[O-])c3)n2)s1
204 to 207	CC(=O)Nc1ccc2oc([N+](=O)[O-])c(-c3ccccc3)c2c1
240 to 241	CNC(=O)c1cc2[nH]c(C)nc2c2c1CCC1(Cc3ccccc3C1)N2
114 to 115	C=CCn1nc(-c2ccc(OC)cc2)c(-c2ccc(OC)cc2)cc1=O
187 to 188	S=C(NN=Cc1cccc(-c2ccccc2Cl)n1)NN1CCCC1
113 to 116	O=C(Nc1ccc(-n2nc(C(F)(F)F)cc2C(F)(F)F)cc1)c1cccc(Cl)c1F
98 to 99	c1ccc2c(c1)CCc1ccccc1C2=NCC1CC1
268 to 270	O=C(Nc1ccccc1)c1ccc2c(c1)S(=O)(=O)NCN2C1CC1
222 to 225	CCN1CCc2ccc(Nc3ncc([N+](=O)[O-])c(Nc4ccccc4C(=O)NC)n3)cc2CC1
263 to 265	Cc1nc2cc(NC(=O)c3cc4cc(C(F)(F)F)cnc4n3Cc3cccc(F)c3)ccc2n1C

melting point [°C]	SMILES
171	O=C(O)Cc1cc(C(=O)c2cccc(F)c2)ccc1O
211 to 214	O=P(Cc1ccc2ccccc2c1-c1c(CP(=O)(c2ccc(F)cc2)c2ccc(F)cc2)ccc2ccccc12)(c1ccc(F)cc1)c1ccc(F)cc1
129 to 131	O=Cc1c2ccccc2cc2c(Cl)cccc12
245 to 247	COc1ccc2c(c1)C(=O)N(c1ccc3nc(C)ncc3c1)C2
62 to 65	Cc1ccc(C)c(OCc2ccccc2C(Cl)Cl)c1
187	O=C(O)c1cc(C(=O)C(F)(F)F)cc2c1OC(c1ccccc1)(c1ccccc1)O2
144 to 146	O=c1ccc(-c2c(-c3ccccc3)nn3ccccc23)nn1[C@H]1CCNC1
117 to 118	CCOC(=S)c1cnc(Cc2ccccc2)nc1N
209 to 210	CCN(c1nc(C)cc(-c2ccccc2C(=O)O)n1)c1ccc(C(C)C)cc1Br
111 to 112	COc1ccc(C=CC(=O)c2c(OC)cc(OC)cc2OC(=O)c2ccc(OC)cc2)cc1
182 to 185	CCc1c(C(F)(F)F)nn(-c2ccc(S(N)(=O)=O)nc2)c1-c1ccc(-c2cscn2)c(F)c1
113 to 115	COc1ccc(-c2cc(C#N)nnc2-c2ccc(OC)cc2)cc1
152 to 154	COC(=O)c1cccc([N+](=O)[O-])c1Nc1cccc2[nH]ncc12
75	ClC(c1ccccc1)c1ccc(C2CCCCC2)cc1 (stereo not drawn)
110	Cc1cc(-c2ccnc(Cl)c2)n(-c2ccc(Cl)cc2)n1
94 to 96	CCCn1cc(Cc2ccc(C(=O)NS(=O)(=O)c3ccccc3C)cc2OC)c2cc(CCCC(=O)N(C)C)ccc21
88 to 91	COC(=O)Cc1ccccc1CC(=O)NCCc1ccc(OC)c(OC)c1
77 to 79	Cc1ccccc1Nc1nc(N(C)c2ccccc2)c2cccc(OCCCN(C)C)c2n1
199 to 200	Oc1cccc(-c2ocnc2-c2onc(-c3ccccc3)c2-c2ccccc2)c1
172 to 174	CCNC(=O)N1CCC(c2cc(F)ccc2F)(S(=O)(=O)c2ccc(Cl)cc2)CC1
110 to 111	CSC(=O)NCc1c[nH]c2ccccc12
50.8	Cn1c(C(F)(F)F)cc(=O)n(-c2cc(Oc3ccccc3OCc3ccccc3)c(Cl)cc2F)c1=O
97	Cc1cccc(-c2n[nH]cc2-c2ccc(F)c(-c3ccc(N4CCN(C)CC4)cn3)c2)n1
169 to 170	CNC(=O)C(CCn1c(COc2ccc(Cl)cc2)nc2c(C)cccc21)Cc1ccccc1 (stereo not drawn)
211 to 213	NC(=O)c1nn(-c2ccc(S(N)(=O)=O)cc2)c2c1CSc1ccccc1-2

The next lines start with the compound.

SMILES	melting point [°C]
COc1cc(NC(=O)CC23CC4CC(CC(C4)C2)C3)c(C)c(OC)c1	201 to 203
CC1(C)COP(N(C2CC(C)(C)NC(C)(C)C2)C2CC(C)(C)NC(C)(C)C2)OC1	156
O=C1NCCc2ccc(OCCCCN3CCN(c4cccc5c4CCC5)CC3)nc2N1	70 to 72
CC(=O)c1cc(CO)c(OCCCCC#N)cc1OCCCCC#N	98 to 99
CC1(C)CC(=O)c2cc(C#N)c(N3CCN(c4ccccc4)CC3)nc2C1	167 to 170
COc1ccc(C2CNC(=O)S2)cc1OC (stereo not drawn)	167 to 169
CC(=O)c1ccc2c(c1)C1(C)C3(C)CCC(C3)C1(C)O2 (stereo not drawn)	140 to 142
CS(=O)(=O)Nc1nc(-c2ccc(NS(C)(=O)=O)c(Sc3ccc(F)cc3F)c2)cs1	159 to 161
CC(=O)N(C)CC(=O)c1ccc2c(c1)OCO2	99 to 101
COC(=O)Nc1nc2cc(F)c(OC(C)c3c(Cl)ccc(F)c3Cl)cc2[nH]1 (stereo not drawn)	245 to 250
N#Cc1sc(Cl)nc1Cl	34 to 35
CN1CCC(Oc2ccc3ccc(N)nc3n2)CC1	174
CON=C(C)C(=NOC)C(C)=NOCc1ccccc1CON=CC(=O)OC	105
CCOc1nc2cc(OC)cc(C)c2c(=O)o1	138 to 140
Cc1cc(NCCO)c(N)c([N+](=O)[O-])c1	166
COc1cc2c(cc1Nc1ncc(Cl)c(Nc3ccccc3S(=O)(=O)N(C)C)n1)CCN(Cc1nccn1C)CC2	79 to 86
COCc1noc(-c2ncn3c2[C@@H]2CCCN2C(=O)c2c(Cl)cccc2-3)n1	168 to 170
COC(=O)C(O)c1ccc([N+](=O)[O-])cc1 (stereo not drawn)	56 to 58
Cc1ccc2c(c1)C(=O)C(CC=O)C2 (racemic)	53 to 54
CC(C)NCC(O)COc1cccc2c1CC1OC1C2 (stereo not drawn)	106 to 110
CCOC(=O)c1c(C(F)(F)F)nc(C(F)F)c(C(=O)OC)c1NC1CC1	68 to 69.5
O=C(O)C1CCCN1S(=O)(=O)c1ccc(F)cc1 (stereo not drawn)	145 to 148
CCOC(=O)C(NC(=O)CCl)c1cscn1 (stereo not drawn)	145 to 146
N#Cc1nn(-c2c(Cl)cc(C(F)(F)F)cc2Cl)cc1C(=O)C(F)(F)C(F)(F)C(F)(F)F	102 to 103

SMILES	melting point [°C]
OCC1OC(n2c(Cl)nc3cc(Cl)c(Cl)cc32)C(O)C1F (stereo not drawn)	238
CCOC(=O)C(=O)Nc1cc(OC)cc(NC(=O)C(=O)OCC)n1	155 to 156
CC(=O)SCC(C)C(=O)N(CC(=O)O)C1CC1 (stereo not drawn)	86 to 88
N#Cc1c(Cl)cccc1CBr	83
CCOC(=O)COc1ccc2c(c1)CCC2=O	59 to 61
COC(=O)c1ccc(CN2CCOc3cc4c(cc32)C(C)(C)CCC4(C)C)cc1	187
CCN1C(=O)N(c2ccc(C#N)c(C(F)(F)F)c2)C(=O)C1(CF)CF	129 to 130
CC1(C)CCC(N)=CC1=O	153 to 154
OC(CCl)CSc1ncc(Cl)cn1 (stereo not drawn)	99
CCc1nn2c(-c3cccc(C(F)(F)F)c3)ccnc2c1C#N	144 to 146
OCCN1CCC(=C2c3sccc3CCn3ncnc32)CC1	150
O=C(CCN1CCN(c2cccc(C(F)(F)F)c2)CC1)c1ccc2c(c1)Cc1cc(C(=O)CCN3CCN(c4cccc(C(F)(F)F)c4)CC3)ccc1O2	155 to 157
CN(C)CCCC(=O)Cc1ccc2c(c1)Cc1cccnc1O2	76 to 78
CN1CCC(C2=C(C#N)C(c3ccccc3Cl)c3c[nH]nc3N2)CC1 (stereo not drawn)	> 270
COc1ccc(NS(=O)(=O)c2cc(C)c3cc(C(C)C)ccc(C)c2-3)c(OC)c1	114 to 116
CCC(=O)C(CC)=NNc1ccccc1[N+](=O)[O-]	96 to 97
CC1(C)C(C=C(Cl)Cl)C1C(=O)OC(c1cccc(Oc2ccc(F)cc2)n1)C(F)(F)F (stereo not drawn)	69 to 72
CCC12CC(Cl)C3C4CCC(=O)C=C4CCC3C1C(OC(C)=O)CC2=O (stereo not drawn)	125
CN(CC1CCN(c2ccc(OC(F)(F)F)cc2)CC1)c1ccc(OC[C@@]2(C)Cn3cc([N+](=O)[O-])nc3O2)cc1	172 to 175
CC(C)(C)NCCCS(=O)(=O)O	> 280
CC(=O)NC[C@H]1CN(c2ccc(N3CCN(CCCO)CC3)c(F)c2)C(=O)O1	154 to 156
COC(=O)c1c([N+](=O)[O-])cccc1S(=O)(=O)N(CCO)CCO	92 to 93
C[C@@H](N1CC(=O)N(c2ccc(OCC(F)(F)C(F)F)cc2)CC1=O)[C@@]1(c2ccc(F)cc2F)CO1	155 to 156
